Here are results for 2 compounds from patent publication US20140271734A1, “BILE ACID RECYCLING INHIBITORS FOR TREATMENT OF BARRETT'S ESOPHAGUS AND GASTROESOPHAGEAL REFLUX DISEASE” (LUMENA PHARMACEUTICALS, INC., priority 2013, published 2014).

Test [1] relates to fecal bile acid (FBA). Nature of the test: Fecal bile acids in hamsters, LUM001 for 28 days. It is filed as in vivo, golden Syrian hamsters. Conditions: for Weight-Adjusted Fecal Total Bile Acids Excretion: n=10. The procedure: Male golden Syrian hamsters (126-147 gm) were obtained from Charles Rivers Laboratories and were single housed in a constant temperature environment with alternating 12-hour light and dark cycles. Hamsters were fed Teklad 7001 rodent meal chow at libitum for two weeks before the experimental studies began and switched to Teklad 7001 rodent meal chow supplemented with 0.24% cholesterol on day one of the 28-day experiment. LUM001 was dissolved in an aqueous solution of 0.2% (w/v) Tween 80 and administered Q.D. by intragastric gavage between 9 a.m. and 10 a.m. each morning using a syringe fitted with a flexible feeding tube. Blood samples were collected after 14- and 28-day treatment periods by orbital sinus and cardiac puncture, respectively. Hamsters were anesthetized but not fasted prior to blood collections. Fecal samples were collected during a 48-hour period at the end of days 14 and 28 (i.e., days 13-14 and 27-28, respectively).
Fecal samples were collected to determine the fecal bile acid (FBA) concentration for each animal. The separate collections from each hamster were weighed and homogenized with distilled water with a Polytron tissue processor (Brinkman Instruments) to generate a homogeneous slurry. Fecal homogenate (1.4 grams) was extracted with 2.6 mL of a solution containing tertiary butanol:distilled water in the ratio of 2:0.6 [final concentration of 50% (v/v) tertiary butanol] for 45 minutes in a 37° C. water bath and subjected to centrifugation for 13 minutes at 2000×g. The concentration of bile acids (mmolesgram homogenate) was determined using a 96-well enzymatic assay system (6, 7). Aliquots of the fecal extracts (20 μl) were added to two sets of triplicate wells in a 96-well assay plate. A standardized sodium taurocholate solution and a standardized fecal extract solution (previously made from pooled samples and characterized for its bile acid concentration) were also analyzed for assay quality control. Aliquots of 90 mM sodium taurocholate ([…]), were serially diluted to generate a standard curve containing 30-540 nmoles/well. A […] aliquot of reaction mixture containing 1M hydrazine hydrate, 0.1 M pyrophosphate and 0.46 mg/ml NAD was added to each well. Subsequently, a […] aliquot of either 3a-hydroxysteroid dehydrogenase enzyme (HSD; 0.8 units/ml) or assay buffer (0.1 M sodium pyrophosphate) was then added to one each of the two sets of triplicates. Following 60 minutes of incubation at room temperature, the optical density at 340 nm was measured and the mean of each set of triplicate samples was calculated. The difference in optical density±HSD enzyme was used to determine the bile acid concentration (mM) of each sample based on the sodium taurocholate standard curve. The bile acid concentration of the extract (mmolesgram homogenate), the total weight of the fecal homogenate (grams) and the body weight of the hamsters (g) were used to calculate the corresponding FBA concentration in mmoles/day/kg body weight for each animal. All reagents used for the assay were obtained from Sigma Chemical Co., St. Louis, Mo. (HSD—catalog # H-1506; NAD—catalog # N1636; sodium taurocholate—catalog # T-4009).

Test [2] has as its system Cholesterol 7-α hydroxylase. Nature of the test: Cholesterol 7-α hydroxylase activity in liver microsomes of treated dogs. The test is classed as in vivo, beagle dogs. Conditions: 14 Days; for Cholesterol 7a-hydroxylase: n=8. Here is the method: Healthy female and male beagle dogs in the age range of 8 to 10 months were used. The animals were acclimated for at least four weeks before dose administration. Four female and four male dogs per dose group (groups 2-5) were given single daily doses of LUM001 at 1, 4, 12 and 30 mg free form/kg for 13 days. Animals in the control group (group 1) were given the same number of empty capsules as the animals of group 5 to treat all dose groups the same.
At the end of the study, animals were anesthetized, their livers removed and flash frozen and stored at −80 C. Homogenates of three gram liver tissue samples were prepared in 25 ml homogenization buffer [0.1 M potassium phosphate buffer, pH 7.2, containing 0.1 M sucrose, 50 mM KCl, 50 mM NaF, 5 mM ethylene glycol-bis((3-aminoethyl ether)-N,N,N′,N′-tetraacetic acid (EGTA), 1 mM EDTA, 3 mM dithiothreitol (DTT), and 1 mM phenylmethylsulfonyl fluoride (PMSF)]. A microsomal fraction was prepared by centrifugation at 10,000×g for ten minutes. The supernatant was subjected to centrifugation at 105,000×g for two hours. The microsomal fraction was resuspended in a 0.1 M Na tetrapyrophosphate buffer (pH 10), with 50 mM NaF, and 1 mM EDTA, and subjected to centrifugation for one hour at 105,000×g. The microsomal fraction was resuspended in the homogenization buffer, and assayed for protein content by Coomassie Protein Plus Assay reagent.
Liver microsomes (1 mg) or 7-α-hydroxycholesterol standard solutions were preincubated for five minutes at 37° C. in a rocking water bath with 500 μl 5× buffer, 1.7 ml water, and 50 μl 0.1% (w/v) cholesterol as substrate in excess. The 5× buffer consists of 0.42 M Na2HPO4, 0.25 mM NaF, 0.08 M KH2PO4, 5 mM EDTA and 10 mM DTT. The reaction tubes were incubated at 37° C. in a rocking water bath throughout the remainder of the assay protocol, with cessation of rocking only for the period of time needed to add solutions. After the preincubation period, 250 μl of 10 mM NADPH was added and incubated for 5 minutes to allow enzymatic conversion of the cholesterol substrate to 7-α-hydroxycholesterol by endogenous 7-α-hydroxylase. The reaction was stopped by addition of 75 μl of 20% sodium cholate.
After four minutes, 25 μl of 100 μM 20-α-hydroxycholesterol was added to each tube as an internal recovery standard. The tubes were allowed to rock briefly in the water bath to mix, then 40 μl of 25 U/ml cholesterol oxidase was added and the tubes were incubated for ten minutes to convert 7-α-hydroxycholesterol and 20-α-hydroxycholesterol to their ketone forms, 7-α-hydroxycholesten-3-one and 20-α-hydroxycholesten-3-one. After the enzymatic reactions were completed, the ketone products were isolated by four sequential extractions in 20, 10, 10 and 10 ml petroleum ether, respectively. The collected volumes were evaporated to dryness under a flow of nitrogen gas between each extraction step using a heat block set at 50° C. The final dried samples were resuspended in 125 μl mobile phase solution consisting of 70:30 acetonitrile/methanol for analysis by reversed phase HPLC. Chromatography was performed on a 4.6×250 mm Beckman Ultrosphere ODS reverse phase column in mobile phase solution. The analyte, 7-α-hydroxy-4-cholesten-3-one, is quantified by absorption at 254 nm using the internal standard 20-α-hydroxy-4-cholesten-3-one to control for extraction efficiency.
Background: Microsomes from liver hold many membrane-bound enzymes, among them those of drug oxidation.

Test [3] relates to plasma triglycerides. Nature of the test: Plasma triglycerides in ZDF rats, week 3. The test is classed as in vivo. Conditions: twice daily oral gavage, no dose-related response.

`CCCCC1(CCCC)CS(=O)(=O)c2ccc(N(C)C)cc2[C@@H](c2ccc(OCc3ccc(C[N+]45CCN(CC4)CC5)cc3)cc2)[C@H]1O` [LUM001]: the “Weight-Adjusted Fecal Total Bile Acids Excretion, % change from vehicle group” value was “(+233) %” in test [1] (5 mg/kg/day), “(+267) %” in test [1] (15 mg/kg/day) and “(+422) %” in test [1] (50 mg/kg/day). Also, the “Weight-Adjusted Fecal Total Bile Acids Excretion” value was found to be 60 µmol/day/kg in test [1] (5 mg/kg/day), 66 µmol/day/kg in test [1] (15 mg/kg/day) and 94 µmol/day/kg in test [1] (50 mg/kg/day). The “Cholesterol 7a-hydroxylase, % change from vehicle group” value was “(+28) %” in test [2] (1 mg/kg/day), “(+101) %” in test [2] (4 mg/kg/day), “(+219) %” in test [2] (12 mg/kg/day) and “(+378) %” in test [2] (30 mg/kg/day). Also, the “Cholesterol 7a-hydroxylase” value in test [2] (1 mg/kg/day) is on record as 114 ± 18 pmol/mg/min; in test [2] (4 mg/kg/day), 179 ± 22 pmol/mg/min; in test [2] (12 mg/kg/day), 284 ± 41 pmol/mg/min; in test [2] (30 mg/kg/day), 425 ± 58 pmol/mg/min.
`CCCC[C@]1(CC)CS(=O)(=O)c2ccc(N(C)C)cc2[C@@H](c2cccc(NC(=O)N[C@@H]3O[C@H](COS(=O)(=O)[O-])[C@@H](O)[C@H](OCc4ccccc4)[C@H]3O)c2)[C@H]1O.CCO.O.[K+]` [LUM002, potassium((2R,3R,4S,5R,6R)-4-benzyloxy-6-{3-[3-((3S,4R,5R)-3-butyl-7-dimethylamino-3-ethyl-4-hydroxy-1,1-dioxo-2,3,4,5-tetrahydro-1H-benzo[b]thiepin-5-yl)-phenyl]-ureido}-3,5-dihydroxy-tetrahydro-pyran-2-ylmethyl)sulphate ethanolate, hydrate]: the Fasting plasma triglycerides result in test [3] is on record as “statistically significant elevations”.
